Source: article PMC7068720, “Rational Design of Mechanism-Based Inhibitors and Activity-Based Probes for the Identification of Retaining α-L-Arabinofuranosidases” (Journal of the American Chemical Society, 2020)
Where two headings read alike, the source gives them in different places.

How the values were obtained:
AkAbfB (GH54) = target: T1, AkAbfB (GH54) (Aspergillus luchuensis, UniProt Q8NK89); assay: continuous fluorescence assay, irreversible inhibition kinetics; format: biochemical
T1 construct: gene abfB; pPICZalpha, no purification tag, secreted from Pichia pastoris X-33; EndoH-deglycosylated for MS and crystallography
T1 sequence (Q8NK89 18-499): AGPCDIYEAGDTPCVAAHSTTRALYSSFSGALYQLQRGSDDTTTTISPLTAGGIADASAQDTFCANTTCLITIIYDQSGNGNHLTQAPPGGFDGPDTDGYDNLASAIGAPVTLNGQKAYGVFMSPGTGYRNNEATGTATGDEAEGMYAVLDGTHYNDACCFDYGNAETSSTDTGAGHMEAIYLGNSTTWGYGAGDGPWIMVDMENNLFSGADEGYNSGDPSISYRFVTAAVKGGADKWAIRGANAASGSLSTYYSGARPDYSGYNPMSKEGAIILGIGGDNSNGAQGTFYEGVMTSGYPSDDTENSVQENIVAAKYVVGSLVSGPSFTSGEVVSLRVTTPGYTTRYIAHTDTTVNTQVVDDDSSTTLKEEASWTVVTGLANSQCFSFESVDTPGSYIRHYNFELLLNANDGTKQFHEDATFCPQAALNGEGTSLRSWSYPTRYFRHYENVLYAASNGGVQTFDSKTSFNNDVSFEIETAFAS
Source text: continuous fluorescence assay, irreversible inhibition kinetics on AkAbfB (GH54)

AnAbfA (GH51) = target: T2, AnAbfA (GH51) (Aspergillus niger, UniProt A2Q7E0); assay: as above; format: biochemical
T2 construct: gene abfA; synthetic gene in pPICZalpha (vector fragment amplified from untagged AkAbfB plasmid), secreted from Pichia pastoris X-33
T2 sequence (A2Q7E0 26-628): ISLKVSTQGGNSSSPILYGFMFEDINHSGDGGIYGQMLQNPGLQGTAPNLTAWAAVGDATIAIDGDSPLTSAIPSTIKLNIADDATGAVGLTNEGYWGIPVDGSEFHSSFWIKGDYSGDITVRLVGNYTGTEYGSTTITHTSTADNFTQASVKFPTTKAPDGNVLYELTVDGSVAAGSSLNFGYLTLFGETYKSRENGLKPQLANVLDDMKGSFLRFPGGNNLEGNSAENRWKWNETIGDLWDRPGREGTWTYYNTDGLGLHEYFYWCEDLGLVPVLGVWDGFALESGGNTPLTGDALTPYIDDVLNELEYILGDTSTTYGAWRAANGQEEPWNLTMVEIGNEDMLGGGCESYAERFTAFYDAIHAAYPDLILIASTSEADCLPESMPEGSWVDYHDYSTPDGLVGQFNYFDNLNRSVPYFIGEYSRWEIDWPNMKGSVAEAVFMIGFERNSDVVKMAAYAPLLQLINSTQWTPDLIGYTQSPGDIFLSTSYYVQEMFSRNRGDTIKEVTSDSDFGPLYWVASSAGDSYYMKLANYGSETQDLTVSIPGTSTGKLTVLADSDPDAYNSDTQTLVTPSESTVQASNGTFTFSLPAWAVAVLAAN
Source text: continuous fluorescence assay, irreversible inhibition kinetics on AnAbfA (GH51)

AnAbfB (AbfB, GH54) = target: T3, AnAbfB (AbfB, GH54) (Aspergillus niger, UniProt A2R511); assay: competition with ABP […] pull-down, LC-MS/MS; format: biochemical; settings: covalent; 0.1 mM inhibitor 1 h, pH 6.5, 37 °C, then ABP 5
T3 construct: native secreted glycoprotein in arabinan-grown secretome, ~65 kDa on gel (~60 kDa after PNGaseF)
T3 sequence (A2R511 19-499): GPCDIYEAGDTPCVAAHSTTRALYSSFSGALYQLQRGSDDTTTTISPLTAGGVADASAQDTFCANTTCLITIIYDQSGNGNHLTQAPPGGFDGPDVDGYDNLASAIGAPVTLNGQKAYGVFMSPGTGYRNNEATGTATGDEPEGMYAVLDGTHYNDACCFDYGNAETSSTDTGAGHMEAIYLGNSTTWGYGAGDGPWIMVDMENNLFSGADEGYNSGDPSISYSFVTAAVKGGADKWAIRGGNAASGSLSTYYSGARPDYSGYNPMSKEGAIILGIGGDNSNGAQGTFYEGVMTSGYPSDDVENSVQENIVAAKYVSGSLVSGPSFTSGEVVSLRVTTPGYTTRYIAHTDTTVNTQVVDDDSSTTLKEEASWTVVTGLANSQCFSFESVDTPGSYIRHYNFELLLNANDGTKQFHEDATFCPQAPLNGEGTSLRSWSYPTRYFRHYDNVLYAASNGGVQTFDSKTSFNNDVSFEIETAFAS

[1] = target: T4, GsGH51 (Geobacillus stearothermophilus abfA) (Geobacillus stearothermophilus, UniProt Q9XBQ3); assay: X-ray crystallography ([…] Å) and intact MS; format: binding; settings: covalent; nucleophile E294
T4 construct: E. coli BL21(DE3) Gold, pET28a(+), N-terminal TEV-cleavable 6xHis tag removed

AbfE (GH51) = target: T5, AbfE (GH51) (Aspergillus niger, UniProt A2QT56); assay: competition with ABP […] pull-down, LC-MS/MS; format: biochemical; settings: covalent; 0.1 mM inhibitor 1 h, pH 6.5, 37 °C, then ABP 5
T5 construct: gene An09g00880; native secreted protein in arabinan-grown secretome
T5 sequence (A2QT56 32-646): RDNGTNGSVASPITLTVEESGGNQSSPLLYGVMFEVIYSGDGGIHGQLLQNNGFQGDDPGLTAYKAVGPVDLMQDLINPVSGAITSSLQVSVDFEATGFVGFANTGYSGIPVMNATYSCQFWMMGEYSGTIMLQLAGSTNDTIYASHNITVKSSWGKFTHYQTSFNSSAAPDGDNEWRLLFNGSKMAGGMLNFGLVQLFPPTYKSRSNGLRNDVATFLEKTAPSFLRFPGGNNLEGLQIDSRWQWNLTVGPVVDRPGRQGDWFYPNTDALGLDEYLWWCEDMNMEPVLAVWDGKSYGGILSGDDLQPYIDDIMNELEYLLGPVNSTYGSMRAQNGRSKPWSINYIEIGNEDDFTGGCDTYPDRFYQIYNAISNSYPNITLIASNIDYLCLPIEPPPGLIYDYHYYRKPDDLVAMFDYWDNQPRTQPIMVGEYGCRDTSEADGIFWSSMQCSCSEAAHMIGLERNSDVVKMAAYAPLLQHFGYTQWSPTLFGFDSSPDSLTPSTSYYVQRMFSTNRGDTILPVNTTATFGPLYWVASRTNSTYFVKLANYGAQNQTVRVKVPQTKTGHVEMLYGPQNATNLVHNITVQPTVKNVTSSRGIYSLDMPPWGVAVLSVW

[2] = substrate: Cc1cc(=O)oc2cc(O[C@@H]3O[C@@H](CO)[C@H](O)[C@H]3O)ccc12; assay: continuous fluorescence assay, Michaelis-Menten; format: biochemical, Aspergillus luchuensis; settings: 4-500 μM substrate, 50 mM sodium phosphate pH 7.0, 25 °C
[3] = substrate: Cc1cc(=O)oc2cc(O[C@@H]3O[C@@H](CO)[C@H](O)[C@H]3O)ccc12; assay: continuous fluorescence assay, Michaelis-Menten; format: biochemical, Aspergillus niger; settings: 4-500 μM substrate, 50 mM sodium phosphate pH 7.0, 25 °C
[4] = 4MU-Araf 100 μM, 50 mM sodium phosphate pH 7.0, 25 °C; up to 0.25 mM inhibitor
[5] = covalent; mechanism-based; 4MU-Araf 100 μM, 50 mM sodium phosphate pH 7.0, 25 °C; read-out: KI
[6] = read-out: KI; covalent; mechanism-based; 4MU-Araf 100 μM, 50 mM sodium phosphate pH 7.0, 25 °C
[7] = covalent; mechanism-based; 4MU-Araf 100 μM, 50 mM sodium phosphate pH 7.0, 25 °C

T4 sequence (Q9XBQ3 whole entry): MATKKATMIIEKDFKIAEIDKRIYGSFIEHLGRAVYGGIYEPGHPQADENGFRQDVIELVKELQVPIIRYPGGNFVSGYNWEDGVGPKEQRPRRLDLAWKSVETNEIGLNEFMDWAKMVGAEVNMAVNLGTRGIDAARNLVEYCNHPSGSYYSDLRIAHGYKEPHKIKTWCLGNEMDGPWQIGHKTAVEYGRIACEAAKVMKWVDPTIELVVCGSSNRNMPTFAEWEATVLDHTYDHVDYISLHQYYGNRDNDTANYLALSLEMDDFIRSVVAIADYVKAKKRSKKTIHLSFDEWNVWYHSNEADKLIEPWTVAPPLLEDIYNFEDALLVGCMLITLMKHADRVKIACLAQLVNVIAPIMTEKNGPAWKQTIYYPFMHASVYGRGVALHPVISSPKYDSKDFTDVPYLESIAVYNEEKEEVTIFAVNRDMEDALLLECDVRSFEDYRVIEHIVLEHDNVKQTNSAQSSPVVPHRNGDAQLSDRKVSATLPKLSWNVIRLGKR

Molecule: OC[C@H]1[C@H](O)[C@@H](O)[C@@H]2O[C@H]12 [compound 1]
- kinact/KI (AkAbfB (GH54); [4]): < 0.1 M⁻¹ s⁻¹
- kinact/KI (AnAbfA (GH51); [4]): < 0.1 M⁻¹ s⁻¹

Molecule: OC[C@H]1[C@H](O)[C@@H](O)[C@@H]2N[C@H]12 [compound 2, inhibitor 2]
- KI (inactivation) (AkAbfB (GH54); [5]): 320 ± 50 µM
- competition with ABP 5 pull-down, LC-MS/MS (AnAbfB (AbfB, GH54)): significantly reduced signal for peptides from AbfA, AbfB, and AbfE
- X-ray crystallography (1.40 Å) and intact MS [1]: full occupancy covalent complex between E294, the known catalytic nucleophile, and each inhibitor
- competition with ABP 5 pull-down, LC-MS/MS (AbfE (GH51)): significantly reduced signal for peptides from AbfA, AbfB, and AbfE
- KI (inactivation) (AnAbfA (GH51); [5]): 140 ± 20 µM

Molecule: NCCCCCCCCN1[C@@H]2[C@@H](CO)[C@H](O)[C@@H](O)[C@@H]21 (stereo partly shown) [compound 3, inhibitor 3]
- KI (inactivation) (AkAbfB (GH54); [6]): 320 ± 40 µM
- KI (inactivation) (AnAbfA (GH51); [6]): 210 ± 30 µM

Molecule: O=S1(=O)O[C@@H]2[C@@H](CO)[C@H](O)[C@@H](O)[C@@H]2O1 [compound 6, inhibitor 6]
- kinact/KI (AkAbfB (GH54); [7]): 240 ± 30 M⁻¹ s⁻¹
- X-ray crystallography (1.40 Å) and intact MS [1]: full occupancy covalent complex between E294, the known catalytic nucleophile, and each inhibitor
- kinact/KI (AnAbfA (GH51); [7]): 160 ± 20 M⁻¹ s⁻¹

B1: AkAbfB (GH54) (Aspergillus luchuensis IFO 4308) (protein)
chain: T1 sequence (Q8NK89 18-499)
notes: pPICZalpha, no purification tag, secreted from Pichia pastoris X-33; EndoH-deglycosylated for MS and crystallography
- Km [2]: 390 ± 30 µM
- kcat [2]: 3.5 ± 0.167 s⁻¹

B2: AnAbfA (GH51) (Aspergillus niger CBS 513.88) (protein)
chain: T2 sequence (A2Q7E0 26-628)
notes: synthetic gene in pPICZalpha (vector fragment amplified from untagged AkAbfB plasmid), secreted from Pichia pastoris X-33
- Km [3]: 240 ± 20 µM
- kcat [3]: 2.17 ± 0.167 s⁻¹
